# Source: patent publication US7034044B2, “Conjugated aromatic compounds with a pyridine substituent” (Hoffmann-La Roche Inc., priority 2001, dated 2006)
# Structures can show the parent of a compound that is named as a salt.
# Tests used:
# NMDA-receptor subtype 2B = molecular target: T1, NMDA-receptor subtype 2B (Rattus norvegicus, UniProt P35439+Q00960); test: 3H-Ro 25-6981 binding (displacement); conditions: displacement of 5 nM 3H-Ro 25-6981 from rat brain membranes (whole brain minus cerebellum and medulla oblongata), 2 hours at 4° C., Tris-HCl 50 mM pH 7.4
# T1 construct: Membranes were prepared by homogenization of the whole brain minus cerebellum and medulla oblongata; from tissue; host or cells: rat whole brain minus cerebellum and medulla oblongata (membranes)
# T1 sequence (Q00960 27-1482, other chains not shown): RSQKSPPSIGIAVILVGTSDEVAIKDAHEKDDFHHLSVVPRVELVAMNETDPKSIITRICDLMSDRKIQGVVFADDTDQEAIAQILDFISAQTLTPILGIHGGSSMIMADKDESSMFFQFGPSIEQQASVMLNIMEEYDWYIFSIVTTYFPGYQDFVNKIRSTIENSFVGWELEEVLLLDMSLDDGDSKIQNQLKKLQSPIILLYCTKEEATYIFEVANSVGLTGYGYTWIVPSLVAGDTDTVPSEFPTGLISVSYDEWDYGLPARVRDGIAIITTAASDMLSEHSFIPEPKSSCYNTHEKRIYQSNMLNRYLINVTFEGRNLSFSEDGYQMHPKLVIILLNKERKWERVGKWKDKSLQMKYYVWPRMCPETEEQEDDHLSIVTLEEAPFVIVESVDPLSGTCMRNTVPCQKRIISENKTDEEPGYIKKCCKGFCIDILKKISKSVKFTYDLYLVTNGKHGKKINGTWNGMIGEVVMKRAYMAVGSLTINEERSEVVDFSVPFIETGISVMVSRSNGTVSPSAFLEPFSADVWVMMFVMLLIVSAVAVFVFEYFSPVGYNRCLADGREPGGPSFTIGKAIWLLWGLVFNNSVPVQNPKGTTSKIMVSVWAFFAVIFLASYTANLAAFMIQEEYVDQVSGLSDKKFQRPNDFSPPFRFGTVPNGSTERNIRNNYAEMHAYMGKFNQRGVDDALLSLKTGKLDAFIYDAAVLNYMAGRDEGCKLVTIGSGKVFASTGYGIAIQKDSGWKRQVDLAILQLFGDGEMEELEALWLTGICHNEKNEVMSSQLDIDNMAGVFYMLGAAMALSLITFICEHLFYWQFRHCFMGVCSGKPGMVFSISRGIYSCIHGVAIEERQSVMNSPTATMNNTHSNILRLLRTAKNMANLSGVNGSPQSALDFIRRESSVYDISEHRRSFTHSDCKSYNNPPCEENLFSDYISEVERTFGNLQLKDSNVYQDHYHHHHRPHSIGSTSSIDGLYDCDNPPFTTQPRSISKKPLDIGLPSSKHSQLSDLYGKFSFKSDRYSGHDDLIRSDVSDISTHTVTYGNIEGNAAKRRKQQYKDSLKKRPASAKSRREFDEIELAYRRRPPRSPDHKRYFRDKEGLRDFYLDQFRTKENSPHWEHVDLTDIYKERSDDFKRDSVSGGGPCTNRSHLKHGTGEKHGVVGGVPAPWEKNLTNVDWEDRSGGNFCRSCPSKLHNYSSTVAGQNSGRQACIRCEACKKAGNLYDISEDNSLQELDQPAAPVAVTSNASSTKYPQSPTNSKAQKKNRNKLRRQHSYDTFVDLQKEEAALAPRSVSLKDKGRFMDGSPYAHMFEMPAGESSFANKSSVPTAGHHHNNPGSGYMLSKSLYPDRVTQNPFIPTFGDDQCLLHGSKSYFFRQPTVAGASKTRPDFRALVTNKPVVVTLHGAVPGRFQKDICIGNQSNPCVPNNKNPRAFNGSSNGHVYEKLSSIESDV
# Procedure: ^3H-Ro 25-6981 binding (Ro 25-6981 is [R—(R*,S*)]-α-(4-Hydroxy-phenyl)-β-methyl-4-(phenyl-methyl)-1-piperidine propanol)
# Male Füllinsdorf albino rats weighing between 150–200 g were used. Membranes were prepared by homogenization of the whole brain minus cerebellum and medulla oblongata with a Polytron (10.000 rpm, 30 seconds), in 25 volumes of a cold Tris-HCl 50 mM, EDTA 10 mM, pH 7.1 buffer. The homogenate was centrifuged at 48,000 g for 10 minutes at 4° C. The pellet was resuspended using the Polytron in the same volume of buffer and the homogenate was incubated at 37° C. for 10 minutes. After centrifugation the pellet was homogenized in the same buffer and frozen at −80° C. for at least 16 hours but not more than 10 days. For the binding assay the homogenate was thawed at 37° C., centrifuged and the pellet was washed three times as above in a Tris-HCl 5 mM, pH 7.4 cold buffer. The final pellet was resuspended in the same buffer and used at a final concentration of […].
# ^3H-Ro 25-6981 binding experiments were performed using a Tris-HCl 50 mM, pH 7.4 buffer. For displacement experiments 5 nM of ^3H-Ro 25-6981 were used and non specific binding was measured using 10 mM of tetrahydroisoquinoline and usually it accounts for 10% of the total. The incubation time was 2 hours at 4° C. and the assay was stopped by filtration on Whatmann GF/B glass fiber filters (Unifilter-96, Packard, Zürich, Switzerland). The filters were washed 5 times with cold buffer. The radioactivity on the filter was counted on a Packard Top-count microplate scintillation counter after addition of […] of microscint 40 (Canberra Packard S. A., Zürich, Switzerland).
# The above procedure was performed to determine data for calculation of an IC50 value. The IC50 value is a concentration expressed in micromoles (μM) for a test compound at which 50% of the ligand (in this determination, ^3H-Ro 25-6981) bonded to the receptor is displaced. The binding ability of the compounds of the invention was measured in vitro using a minimum of 10 concentrations and repeated at least once. The specific binding at each concentration was then calculated as the % of the maximum specific binding (100%) obtained in the same experiment, in the absence of a test compound. Competitive displacement of ^3H-Ro 25-6981 was observed, with complete displacement of the radioligand from specific binding sites (usually about 0% of specific binding at the highest concentrations tested). An IC50 value was then calculated with all the ten datapoints (% of specific bound) by plotting the data on a semilogarithmic scale with a sigmoidal fit (Log of the molar concentration on X-axis vs. % of specific bound on the Y-axis) using Microsoft Excel fit software or Microcal Origin software. The pooled normalized values were analyzed using a non-linear regression calculation program which provide IC50 with their relative upper and lower 95% confidence limits.
IC50 (NMDA-receptor subtype 2B) [nM],melting point,Compound
82,232 to 233 °C,"Cc1cc(N)cc(C2=Cc3cc(Cl)ccc3CC2)n1.O=C(O)/C=C/C(=O)O [Example 37, 2-(7-Chloro-3,4-dihydro-naphthalen-2-yl)-6-methyl-pyridin-4-yl-amine fumarate]"
,87 to 88 °C,"Cc1c(N)ccnc1C1=Cc2ccccc2CC1 [Example 25, 2-(3,4-Dihydro-naphthalen-2-yl)-3-methyl-pyridin-4-yl-amine]"
80,170 °C (dec.),"Cl.NCc1cccc(/C=C/c2ccccc2)n1 [Example 18, trans-C-(6-Styryl-pyridin-2-yl)-methylamine hydrochloride]"
52,106 to 107 °C,"CNc1ccnc(C2=Cc3ccccc3CC2)c1.O=C(O)/C=C/C(=O)O [Example 27, [2-(3,4-Dihydro-naphthalen-2-yl)-pyridin-4-yl]-methyl-amine fumarate]"
,222 to 223 °C,Cl.Nc1cccc(C=Cc2cccc(C(F)(F)F)c2)n1
,> 250 °C,Cc1cnc(C2=Cc3cc(Cl)ccc3CC2)cc1N.O=C(O)/C=C/C(=O)O
,224 to 226 °C,COc1ccc(C=Cc2cccc(N)n2)cc1.Cl
,> 250 °C,Cc1ccc(C=Cc2cccc(N)n2)cc1.Cl
,113 °C (dec.),Nc1cc(CO)nc(C2=Cc3ccccc3CC2)c1.O=C(O)/C=C/C(=O)O
,183 to 185 °C (dec.),Cc1cc(N)cc(C2=Cc3ccccc3C(C)C2)n1.O=C(O)/C=C/C(=O)O (racemic)
,218 to 219 °C,Cc1cnc(C2=Cc3ccsc3CC2)cc1N.O=C(O)/C=C/C(=O)O
,153 to 154 °C,Nc1cccc(C2=Cc3ccccc3CC2)n1.O=C(O)/C=C/C(=O)O
,> 250 °C,Cl.Nc1cccc(C=Cc2cccc(F)c2)n1
,199 to 200 °C,Nc1ccnc(C2=Cc3ccsc3CC2)c1.O=C(O)/C=C/C(=O)O
38,> 230 °C (dec.),"CCc1cc(N)cc(C2=Cc3ccccc3CC2)n1.O=C(O)/C=C/C(=O)O [Example 26, 2-(3,4-Dihydro-naphthalen-2-yl)-6-ethyl-pyridin-4-yl-amine fumarate]"
40,164 to 165 °C,"Nc1ccnc(/C=C/c2ccccc2)c1 [Example 16, trans-2-Styryl-pyridin-4-yl-amine]"
10,> 250 °C,"Cc1cc(N)nc(/C=C/c2ccccc2)c1.Cl [Example 14, trans-4-Methyl-6-styryl-pyridin-2-yl-amine hydrochloride]"
32,202 to 203 °C,"Cc1cc(N)cc(C2=Cc3ccccc3CC2)n1.O=C(O)/C=C/C(=O)O [Example 22, 2-(3,4-Dihydro-naphthalen-2-yl)-6-methyl-pyridin-4-yl-amine fumarate]"
,> 250 °C,Cl.Nc1cccc(C=Cc2ccc(F)cc2)n1
,142 to 143 °C,Cc1cc(N)nc(C2=Cc3ccccc3CC2)c1.O=C(O)/C=C/C(=O)O

IC50 (NMDA-receptor subtype 2B) [nM],melting point,Compound
,248 to 249 °C,Cl.Nc1cccc(C=Cc2cccc(Cl)c2)n1
20,,"Nc1ccnc(C2=Cc3cc(Cl)ccc3CC2)c1 [Example 30, 2-(7-Chloro-3,4-dihydro-naphthalen-2-yl)-pyridin-4-ylamine fumarate]"
,193 to 194 °C,COc1ccc2c(c1)C=C(c1cc(N)ccn1)CC2.O=C(O)/C=C/C(=O)O
,159 to 160 °C,"Nc1ccc(/C=C/c2ccccc2)nc1 [Example 15, trans-6-Styryl-pyridin-3-yl-amine]"
11,> 200 °C (dec.),"Cc1cnc(C2=Cc3ccccc3CC2)cc1N.O=C(O)/C=C/C(=O)O [Example 24, 2-(3,4-Dihydro-naphthalen-2-yl)-5-methyl-pyridin-4-yl-amine fumarate]"
,210 to 211 °C,Cc1cnc(C2=Cc3ccccc3C(C)C2)cc1N.O=C(O)/C=C/C(=O)O (racemic)
,> 250 °C,Cl.Nc1cccc(C=Cc2ccc(Cl)cc2)n1
,157 to 158 °C,CNc1cccc(/C=C/c2ccccc2)n1.Cl
,> 250 °C,Cl.Nc1cccc(C=Cc2ccccc2F)n1
30,149 to 150 °C,"Cc1cc(/C=C/c2ccccc2)cc(N)n1 [Example 13, trans-6-Methyl-4-styryl-pyridin-2-yl-amine]"
,224 to 225 °C,"Nc1cccc(C=Cc2ccc(O)cc2)n1 [Example 11, 4-[2-(6-Amino-pyridin-2-yl)-vinyl]-phenol]"
38,203 to 204 °C,"Cl.NCc1cccc(C2=Cc3ccccc3CC2)n1 [Example 28, C-[6-(3,4-Dihydro-naphthalen-2-yl)-pyridin-2-yl]-methylamine hydrochloride]"
,> 250 °C,Cl.Nc1cccc(C=Cc2ccc(Cl)c(Cl)c2)n1
,232 to 233 °C,Cc1ccc(C)c2c1C=C(c1cc(N)ccn1)CC2.O=C(O)/C=C/C(=O)O
23,232 to 233 °C,"CCc1cc(N)cc(C2=Cc3cc(Cl)ccc3CC2)n1.O=C(O)/C=C/C(=O)O [Example 36, 2-(7-Chloro-3,4-dihydro-naphthalen-2-yl)-6-ethyl-pyridin-4-yl-amine fumarate]"
,176 to 177 °C,CC1CC(c2cc(N)ccn2)=Cc2ccccc21.O=C(O)/C=C/C(=O)O (racemic)
,207 to 208 °C,COc1cccc2c1CCC(c1cc(N)ccn1)=C2.O=C(O)/C=C/C(=O)O
18,231 to 232 °C,"Cl.Nc1ccnc(C2=Cc3ccccc3CC2)c1 [Example 19, 2-(3,4-Dihydro-naphthalen-2-yl)-pyridin-4-yl-amine hydrochloride]"
57,231 to 232 °C,"Cc1cc(C)c2c(c1)C=C(c1cc(N)ccn1)CC2.O=C(O)/C=C/C(=O)O [Example 34, 2-(5,7-Dimethyl-3,4-dihydro-naphthalen-2-yl)-pyridin-4-yl-amine fumarate]"
